Patent US7704992B2, “Hepatitis C virus inhibitors” (Bristol-Myers Squibb Company, priority 2008, dated 2010)
Read-outs that look alike come from different tables or passages of the source.

Tested on: HCV 1b-377-neo replicon cells
Experiment: HCV Replicon assay, HCV 1b genotype
Type: cell-based
Conditions: Hepatitis C virus
Experimental: An HCV Replicon assay was utilized in the present disclosure, and was prepared, conducted and validated as described in commonly owned PCT/US2006/022197 and in O'Boyle et. al. Antimicrob Agents Chemother. 2005 April; 49(4): 1346-53.
HCV 1b-377-neo replicon cells were used to test the currently described compound series as well as cells resistant to compound A containing a Y2065H mutation in NS5A (described in application PCT/US2006/022197). The compounds tested were determined to have more than 10-fold less inhibitory activity on cells containing the mutation than wild-type cells indicating a related mechanism of action between the two compound series. Thus, the compounds of the present disclosure can be effective to inhibit the function of the HCV NS5A protein and are understood to be as effective in combinations as previously described in application PCT/US2006/022197 and commonly owned WO/04014852. Further, the compounds of the present disclosure can be effective against the HCV 1b genotype. It should also be understood that the compounds of the present disclosure can inhibit multiple genotypes of HCV. […] In one embodiment compounds of the present disclosure are active against the 1a, 1b, 2a, 2b, 3a, 4a, and 5a genotypes.

[1] = class symbol, read-out: EC50 range against HCV 1b

SMILES | EC50 [1] | further results
COC(=O)N[C@H](C(=O)N1CCC[C@H]1c1ncc(-c2ccc3c(c2)COCc2cc(-c4cnc([C@@H]5CCCN5C(=O)[C@@H](NC(=O)OC)[C@@H](C)OC)[nH]4)ccc2-3)[nH]1)[C@@H](C)OC [Example 11, methyl ((1S,2R)-2-methoxy-1-(((2S)-2-(4-(9-(2-((2S)-1-(N-(methoxycarbonyl)-O-methyl-L-threonyl)-2-pyrrolidinyl)-1H-imidazol-4-yl)-5,7-dihydrodibenzo[c,e]oxepin-3-yl)-1H-imidazol-2-yl)-1-pyrrolidinyl)carbonyl)propyl)carbamate] | – | EC50 (value in pM, read-out: EC50 value against HCV 1b): 146 pM
CCN(CC)C(C(=O)N1CCC[C@H]1c1ncc(-c2ccc3c(c2)COCc2cc(-c4cnc([C@@H]5CCCN5C(=O)C(c5ccccc5)N(CC)CC)[nH]4)ccc2-3)[nH]1)c1ccccc1 (stereo in doubt) [Example 12, (1S,1′S)-2,2′-(5,7-dihydrodibenzo[c,e]oxepine-3,9-diylbis(1H-imidazole-4,2-diyl(2S)-2,1-pyrrolidinediyl))bis(N,N-diethyl-2-oxo-1-phenylethanamine)] | 101 to 999 pM | –
COC(=O)N[C@@H](C)C(=O)N1CCC[C@H]1c1ncc(-c2ccc3c(c2)[nH]c2cc(-c4cnc([C@@H]5CCCN5C(=O)[C@H](C)NC(=O)OC)[nH]4)ccc23)[nH]1 [Example 30, methyl ((1S)-2-((2S)-2-(5-(7-(2-((2S)-1-(N-(methoxycarbonyl)-L-alanyl)-2-pyrrolidinyl)-1H-imidazol-5-yl)-9H-carbazol-2-yl)-1H-imidazol-2-yl)-1-pyrrolidinyl)-1-methyl-2-oxoethyl)carbamate] | – | EC50 (value in nM, read-out: EC50 value against HCV 1b): 20000 pM
COC(=O)N[C@H](C(=O)N1CCC[C@H]1c1ncc(-c2ccc3c(c2)C(C)(N(C)C)c2cc(-c4cnc([C@@H]5CCCN5C(=O)[C@@H](NC(=O)OC)C(C)C)[nH]4)ccc2-3)[nH]1)C(C)C [Example 13, methyl ((1S)-1-(((2S)-2-(5-(9-(dimethylamino)-7-(2-((2S)-1-((2S)-2-((methoxycarbonyl)amino)-3-methylbutanoyl)-2-pyrrolidinyl)-1H-imidazol-5-yl)-9-methyl-9H-fluoren-2-yl)-1H-imidazol-2-yl)-1-pyrrolidinyl)carbonyl)-2-methylpropyl)carbamate] | 1 to 100 pM | –
